Literature values in US20020086070A1, “Anti-inflammatory and connective tissue repair formulations” (priority 2000, published 2002).
pIC50: −log10 of the molar value.

How the values were obtained:
[1] = target: cyclooxygenase-2 induction; conditions: TNFalpha-dependent induction; read-out: IC(50) for suppression of TNFalpha-dependent cyclooxygenase-2 induction
[2] = tested on: arachidonic acid-induced inflammatory ear edema; conditions: mice
[3] = tested on: skin tumor formation; conditions: following initiation with a chemical challenge
[4] = tested on: COX-2 over COX-1; conditions: specificity for COX-2 over COX-1

For `CC(C)=CCC1=C(O)[C@](O)(CC=C(C)C)C(=O)C(C(=O)CC(C)C)=C1O` [humulon], the pIC50 [1] is listed as ~7.52, the “inhibition of arachidonic acid-induced inflammatory ear edema” value [2] is listed as “inhibited” and the “inhibition of skin tumor formation” value [3] is listed as “inhibited skin tumor formation”.
For `CC(=O)Oc1ccccc1C(=O)O` [aspirin], the COX-2 specificity [4] is listed as 0.6.
